Reference: PubChem BioAssay (NCI)
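Test compounds were applied to cells in 96-well plates for 48 hours at 5 doses. GI50 is the concentration that inhibits growth by half. TGI: concentration producing complete growth inhibition.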

What was measured:
Experiment in all cases: growth of human tumour cells (NCI), 48 h
ACHN renal = system: ACHN renal
SW-620 colon = system: SW-620 colon
KM12 colon = system: KM12 colon
MALME-3M melanoma = system: MALME-3M melanoma
OVCAR-8 ovarian = system: OVCAR-8 ovarian
SK-MEL-28 melanoma = system: SK-MEL-28 melanoma
UACC-62 melanoma = system: UACC-62 melanoma
CCRF-CEM leukemia = system: CCRF-CEM leukemia
SK-MEL-5 melanoma = system: SK-MEL-5 melanoma
BT-549 breast = system: BT-549 breast
SNB-75 CNS = system: SNB-75 CNS
PC-3 prostate = system: PC-3 prostate
SN12C renal = system: SN12C renal
SF-295 CNS = system: SF-295 CNS
UO-31 renal = system: UO-31 renal
TK-10 renal = system: TK-10 renal
NCI-H226 lung = system: NCI-H226 lung
CAKI-1 renal = system: CAKI-1 renal
OVCAR-3 ovarian = system: OVCAR-3 ovarian
SNB-19 CNS = system: SNB-19 CNS
SF-539 CNS = system: SF-539 CNS
RXF 393 renal = system: RXF 393 renal
A498 renal = system: A498 renal
SR leukemia = system: SR leukemia
NCI-H23 lung = system: NCI-H23 lung
NCI-H460 lung = system: NCI-H460 lung
MCF7 breast = system: MCF7 breast
HCT-15 colon = system: HCT-15 colon
NCI-H522 lung = system: NCI-H522 lung
OVCAR-4 ovarian = system: OVCAR-4 ovarian
UACC-257 melanoma = system: UACC-257 melanoma
M14 melanoma = system: M14 melanoma
HT29 colon = system: HT29 colon
EKVX NSCLC = system: EKVX NSCLC
IGROV1 ovarian = system: IGROV1 ovarian
SK-MEL-2 melanoma = system: SK-MEL-2 melanoma
HS 578T breast = system: HS 578T breast
HL-60(TB) leukemia = system: HL-60(TB) leukemia
NCI/ADR-RES ovarian = system: NCI/ADR-RES ovarian
MDA-MB-435 = system: MDA-MB-435
HCC-2998 colon = system: HCC-2998 colon
A549 NSCLC = system: A549 NSCLC
MDA-MB-231 breast = system: MDA-MB-231 breast
SF-268 CNS = system: SF-268 CNS
T-47D breast = system: T-47D breast
LOX IMVI melanoma = system: LOX IMVI melanoma
HOP-92 NSCLC = system: HOP-92 NSCLC
786-0 renal = system: 786-0 renal
RPMI-8226 leukemia = system: RPMI-8226 leukemia
K-562 leukemia = system: K-562 leukemia
COLO 205 colon = system: COLO 205 colon
DU-145 prostate = system: DU-145 prostate
HCT-116 colon = system: HCT-116 colon
SK-OV-3 ovarian = system: SK-OV-3 ovarian
U251 CNS = system: U251 CNS
HOP-62 NSCLC = system: HOP-62 NSCLC
OVCAR-5 ovarian = system: OVCAR-5 ovarian
MOLT-4 leukemia = system: MOLT-4 leukemia

In the case of COC(=O)C1=C(C)NC2(O)C=CC(=O)C3C(=O)N(c4ccccc4)C(=O)C132 (centres undefined), the TGI (ACHN renal) is reported as over 100 µM, the TGI (SW-620 colon) is reported as over 100 µM and the TGI (KM12 colon) is reported as over 100 µM. It also gave a TGI (MALME-3M melanoma) of 88 µM, a TGI (OVCAR-8 ovarian) of over 100 µM and a TGI (SK-MEL-28 melanoma) of 78.7 µM. For the same compound, the TGI (UACC-62 melanoma) was over 100 µM, the TGI (CCRF-CEM leukemia) was over 100 µM and the TGI (SK-MEL-5 melanoma) was over 100 µM. It also gave a TGI (BT-549 breast) of over 100 µM, a TGI (SNB-75 CNS) of over 100 µM and a TGI (PC-3 prostate) of over 100 µM. It also gave a TGI (SN12C renal) of over 100 µM, a TGI (SF-295 CNS) of over 100 µM and a TGI (UO-31 renal) of over 100 µM. It also gave a TGI (TK-10 renal) of over 100 µM, a TGI (NCI-H226 lung) of over 100 µM and a TGI (CAKI-1 renal) of over 100 µM. It also gave a TGI (OVCAR-3 ovarian) of over 100 µM, a TGI (SNB-19 CNS) of over 100 µM and a TGI (SF-539 CNS) of over 100 µM. It also gave a TGI (RXF 393 renal) of over 100 µM, a TGI (A498 renal) of over 100 µM and a TGI (SR leukemia) of over 100 µM. The TGI (NCI-H23 lung) was over 100 µM, the TGI (NCI-H460 lung) was over 100 µM and the TGI (MCF7 breast) was over 100 µM. It also gave a TGI (HCT-15 colon) of over 100 µM, a TGI (NCI-H522 lung) of over 100 µM and a TGI (OVCAR-4 ovarian) of over 100 µM. The TGI (UACC-257 melanoma) was over 100 µM, the TGI (M14 melanoma) was over 100 µM and the TGI (HT29 colon) was 70.3 µM. For the same compound, the TGI (EKVX NSCLC) was over 100 µM, the TGI (IGROV1 ovarian) was over 100 µM and the TGI (SK-MEL-2 melanoma) was over 100 µM. The TGI (HS 578T breast) was over 100 µM, the TGI (HL-60(TB) leukemia) was over 100 µM and the TGI (NCI/ADR-RES ovarian) was over 100 µM. The TGI (MDA-MB-435) was over 100 µM, the TGI (HCC-2998 colon) was over 100 µM and the TGI (A549 NSCLC) was over 100 µM. The TGI (MDA-MB-231 breast) was over 100 µM, the TGI (SF-268 CNS) was over 100 µM and the TGI (T-47D breast) was over 100 µM. The TGI (LOX IMVI melanoma) was over 100 µM, the TGI (HOP-92 NSCLC) was over 100 µM and the TGI (786-0 renal) was over 100 µM. The TGI (RPMI-8226 leukemia) was over 100 µM, the TGI (K-562 leukemia) was over 100 µM and the TGI (COLO 205 colon) was over 100 µM. The TGI (DU-145 prostate) was over 100 µM, the TGI (HCT-116 colon) was over 100 µM and the TGI (SK-OV-3 ovarian) was over 100 µM. For the same compound, the TGI (U251 CNS) was over 100 µM, the TGI (HOP-62 NSCLC) was over 100 µM and the TGI (OVCAR-5 ovarian) was over 100 µM. For the same compound, the TGI (MOLT-4 leukemia) was over 100 µM.

In the case of COc1ccc(/C=C/c2nc(NCCCN(C)C)c3ccccc3n2)cc1, the GI50 (ACHN renal) is reported as 17.1 µM, the TGI (ACHN renal) is reported as 31.7 µM and the GI50 (SW-620 colon) is reported as 1.67 µM. For the same compound, the TGI (SW-620 colon) was 3.49 µM, the GI50 (KM12 colon) was 1.73 µM and the TGI (KM12 colon) was 3.13 µM. For the same compound, the GI50 (MALME-3M melanoma) was 1.62 µM, the TGI (MALME-3M melanoma) was 3.18 µM and the GI50 (OVCAR-8 ovarian) was 4.75 µM. For the same compound, the TGI (OVCAR-8 ovarian) was 18.7 µM, the GI50 (SK-MEL-28 melanoma) was 4.57 µM and the TGI (SK-MEL-28 melanoma) was 9 µM. It also gave a GI50 (UACC-62 melanoma) of 11.1 µM, a TGI (UACC-62 melanoma) of 25.4 µM and a GI50 (CCRF-CEM leukemia) of 2.02 µM. The TGI (CCRF-CEM leukemia) was 4.53 µM, the GI50 (SK-MEL-5 melanoma) was 1.71 µM and the TGI (SK-MEL-5 melanoma) was 3.27 µM. It also gave a GI50 (BT-549 breast) of 1.55 µM, a TGI (BT-549 breast) of 5.01 µM and a GI50 (SNB-75 CNS) of 1.34 µM. For the same compound, the TGI (SNB-75 CNS) was 2.88 µM, the GI50 (PC-3 prostate) was 3.35 µM and the TGI (PC-3 prostate) was 15.2 µM. For the same compound, the GI50 (SN12C renal) was 11.8 µM, the TGI (SN12C renal) was 29.3 µM and the GI50 (SF-295 CNS) was 5.15 µM. The TGI (SF-295 CNS) was 11 µM, the GI50 (UO-31 renal) was 14.1 µM and the TGI (UO-31 renal) was 29.4 µM. For the same compound, the GI50 (TK-10 renal) was 6.59 µM, the TGI (TK-10 renal) was 22 µM and the GI50 (NCI-H226 lung) was 12 µM. For the same compound, the TGI (NCI-H226 lung) was 30.7 µM, the GI50 (CAKI-1 renal) was 16.5 µM and the TGI (CAKI-1 renal) was 33.7 µM. For the same compound, the GI50 (OVCAR-3 ovarian) was 4.88 µM, the TGI (OVCAR-3 ovarian) was 11.4 µM and the GI50 (SNB-19 CNS) was 4.31 µM. The TGI (SNB-19 CNS) was 9.67 µM, the GI50 (SF-539 CNS) was 1.69 µM and the TGI (SF-539 CNS) was 3.15 µM. It also gave a GI50 (RXF 393 renal) of 3.68 µM, a TGI (RXF 393 renal) of 12.1 µM and a GI50 (A498 renal) of 14 µM. The TGI (A498 renal) was 27.7 µM, the GI50 (SR leukemia) was 1.86 µM and the TGI (SR leukemia) was 4.2 µM. For the same compound, the GI50 (NCI-H23 lung) was 5.43 µM, the TGI (NCI-H23 lung) was 11.5 µM and the GI50 (NCI-H460 lung) was 2.19 µM. It also gave a TGI (NCI-H460 lung) of 4.7 µM, a GI50 (MCF7 breast) of 1.72 µM and a TGI (MCF7 breast) of 3.23 µM. For the same compound, the GI50 (HCT-15 colon) was 16.3 µM, the TGI (HCT-15 colon) was 30.8 µM and the GI50 (NCI-H522 lung) was 1.83 µM. For the same compound, the TGI (NCI-H522 lung) was 3.66 µM, the GI50 (OVCAR-4 ovarian) was 2.07 µM and the TGI (OVCAR-4 ovarian) was 5.58 µM. For the same compound, the GI50 (UACC-257 melanoma) was 1.87 µM, the TGI (UACC-257 melanoma) was 3.65 µM and the GI50 (M14 melanoma) was 2.16 µM. The TGI (M14 melanoma) was 4.81 µM, the GI50 (HT29 colon) was 1.61 µM and the TGI (HT29 colon) was 3.13 µM. It also gave a GI50 (EKVX NSCLC) of 5.17 µM, a TGI (EKVX NSCLC) of 21.1 µM and a GI50 (IGROV1 ovarian) of 3.39 µM. The TGI (IGROV1 ovarian) was 10.6 µM, the GI50 (SK-MEL-2 melanoma) was 1.88 µM and the TGI (SK-MEL-2 melanoma) was 3.52 µM. The GI50 (HS 578T breast) was 3.22 µM, the TGI (HS 578T breast) was 11 µM and the GI50 (HL-60(TB) leukemia) was 1.71 µM. The TGI (HL-60(TB) leukemia) was 3.86 µM, the GI50 (NCI/ADR-RES ovarian) was over 100 µM and the TGI (NCI/ADR-RES ovarian) was over 100 µM. It also gave a GI50 (MDA-MB-435) of 1.81 µM, a TGI (MDA-MB-435) of 3.65 µM and a GI50 (HCC-2998 colon) of 13.8 µM. For the same compound, the TGI (HCC-2998 colon) was 27.6 µM, the GI50 (A549 NSCLC) was 2.62 µM and the TGI (A549 NSCLC) was 7.65 µM. For the same compound, the GI50 (MDA-MB-231 breast) was 1.99 µM, the TGI (MDA-MB-231 breast) was 5.24 µM and the GI50 (SF-268 CNS) was 1.86 µM. It also gave a TGI (SF-268 CNS) of 4.17 µM, a GI50 (T-47D breast) of 1.81 µM and a TGI (T-47D breast) of 3.61 µM. It also gave a GI50 (LOX IMVI melanoma) of 1.83 µM, a TGI (LOX IMVI melanoma) of 3.42 µM and a GI50 (HOP-92 NSCLC) of 2.5 µM. For the same compound, the TGI (HOP-92 NSCLC) was 8.15 µM, the GI50 (786-0 renal) was 13.3 µM and the TGI (786-0 renal) was 26.7 µM. The GI50 (RPMI-8226 leukemia) was 1.78 µM, the TGI (RPMI-8226 leukemia) was 4.64 µM and the GI50 (K-562 leukemia) was 1.99 µM. The TGI (K-562 leukemia) was 4.4 µM, the GI50 (COLO 205 colon) was 1.8 µM and the TGI (COLO 205 colon) was 3.3 µM. The GI50 (DU-145 prostate) was 13.9 µM, the TGI (DU-145 prostate) was 27 µM and the GI50 (HCT-116 colon) was 2.3 µM. The TGI (HCT-116 colon) was 5.88 µM, the GI50 (SK-OV-3 ovarian) was 2.51 µM and the TGI (SK-OV-3 ovarian) was 6.3 µM. The GI50 (U251 CNS) was 1.79 µM, the TGI (U251 CNS) was 3.37 µM and the GI50 (HOP-62 NSCLC) was 5.16 µM. For the same compound, the TGI (HOP-62 NSCLC) was 9.74 µM, the GI50 (OVCAR-5 ovarian) was 5.58 µM and the TGI (OVCAR-5 ovarian) was 13.6 µM. It also gave a GI50 (MOLT-4 leukemia) of 1.61 µM and a TGI (MOLT-4 leukemia) of 3.55 µM.
